Structures can show the parent of a compound that is named as a salt. Where two headings read alike, the source gives them in different places.

As usually defined, the IC50 is the concentration that inhibits the measured activity by half.

The test deals with Guinea-pig PRP (platelet aggregation). In words: (A) In vitro antiplatelet aggregation effect in guinea pigs (PRP), Table IV-1. Format: cell-based, guinea pig (Hartley male). The following applies: Cavia porcellus, PRP 300,000/mm^3, 37° C. The method, then: Nine parts by volume of blood was collected from the abdominal artery of Hartley male guinea-pigs (weight: about 300 g) in syringes containing 1 part by volume of 3.8% sodium citrate. The blood thus obtained was centrifuged at 200×g for 10 minutes at room temperature to obtain platelet rich plasma (PRP). Furthermore, the residue was centrifuged at 2000×g for 15 minutes to obtain platelet poor plasma (PPP). The measurement was effected by diluting PRP with PPP to 300,000/mm^3. PRP and PPP were put in cuvettes, and the measurement range of transmittance was adjusted to 0% in the case of PRP and to 100% in the case of PPP. Thereafter, a test sample drug dissolved in H2 O:MeOH (1:2) was added to PRP. After the PRP was incubated at 37° C. at 1000 rpm for 2 minutes, an aggregating agent was added to record an aggregation curve. The antiplatelet aggregation effect of the test sample drug was expressed by the concentration (IC50 : μM) at which the aggregation of the control sample was 50% inhibited. […] The measurement of platelet aggregation was carried out by using NBS HEMA TRACER 601.
In vitro antiplatelet aggregation tests; (A) and (B) Tables IV-1 and 2 show antiplatelet aggregation effects of test compounds evaluated as IC50 values (μM). The compound Nos. in Table I should be referred to for the structures of the compounds.

Setting [1] is: aggregating agent ADP, read-out: Guinea-pig PRP IC50, ADP.
[2] abbreviates: aggregating agent collagen 1 to 2 μg/ml, read-out: Guinea-pig PRP IC50, Collagen.

For the molecule `CCOC(=O)CN(C=O)C1CCN(C(=O)c2c(-c3ccc(C(C)(C)C)cc3)n(C)n(-c3ccc(C(=N)N)cc3)c2=O)CC1` [compound 114], the IC50 reads like this: under setting [1], 21 µM; under setting [2], 14 µM.
Turning to `Cn1c(-c2ccc(-c3ccccc3)cc2)c(C(=O)NC2CCN(CC(=O)O)CC2)c(=O)n1-c1ccc(C(=N)N)cc1` [compound 125], the 50% inhibitory concentration (IC50) reads like this: under setting [1], 42 µM; under setting [2], 4.2 µM.
For `CCOC(=O)CN1CCC(N(C)C(=O)c2c(-c3ccc(C(C)(C)C)cc3)n(C)n(-c3ccc(C(=N)N)cc3)c2=O)CC1` [compound 112], the concentration for half-maximal inhibition (IC50) worked out at 37 µM under setting [1] and 14 µM under setting [2].
Taken in the same sequence, the figures for `CCOC(=O)COCCNC(=O)c1c(-c2ccc(-c3ccccc3)cc2)n(C)n(-c2ccc(C(=N)N)cc2)c1=O` [compound 20] were 30 µM and 12 µM.
Taken in the same sequence, the figures for `Cn1c(-c2ccc(C(C)(C)C)cc2)c(C(=O)NC2CCN(CC(=O)O)CC2)c(=O)n1-c1ccc(C(=N)N)cc1` [compound 109] were 3.4 µM and 4 µM.
Taken in the same sequence, the figures for `Cn1c(-c2ccc(C(C)(C)C)cc2)c(C(=O)NCCOCC(=O)O)c(=O)n1-c1ccc(C(=N)N)cc1` [compound 24] were 46 µM and 19 µM.
For `Cn1cc(C(=O)NCCCOCC(=O)O)c(=O)n1-c1ccc(C(=N)N)cc1` [compound 7], the IC50 under setting [1] is 300 µM.
`CCCCc1ccc(-c2c(C(=O)N3CCC(OCC(=O)OCC)CC3)c(=O)n(-c3ccc(C(=N)N)cc3)n2C)cc1` [compound 128]: the IC50 under setting [1] was determined as 20 µM and the IC50 under setting [2] worked out at 7.1 µM.
On to `Cn1cc(C(=O)N2CCC(OCC(=O)O)CC2)c(=O)n1-c1ccc(C(=N)N)cc1` [Compound No. 10], for which the concentration for half-maximal inhibition (IC50) turned out to be 35 µM under setting [1] and 17 µM under setting [2].
Taken in the same sequence, the figures for `CN(C(=O)c1c(-c2ccc(C(C)(C)C)cc2)n(C)n(-c2ccc(C(=N)N)cc2)c1=O)C1CCN(CC(=O)O)CC1` [compound 111] were 11 µM and 8.1 µM.
The like results for `Cn1c(-c2ccc(C(C)(C)C)cc2)c(C(=O)N2CCC(OCC(=O)O)CC2)c(=O)n1-c1ccc(C(=N)N)cc1` [Compound No. 28, 1-(4-amidinophenyl)-3-(4-t-butylphenyl)-4-([4-(carboxymethyloxy)-1-piperidinyl]carbonyl}-2-methyl-2H-pyrazol-5-one hydrochloride] were, in that order, 25 µM and 17 µM.
The like results for `CCOC(=O)CN1CCC(NC(=O)c2c(-c3ccc(-c4ccccc4)cc3)n(C)n(-c3ccc(C(=N)N)cc3)c2=O)CC1` [compound 126] were, in that order, 76 µM and 7.6 µM.
For `CCOC(=O)CN(C)C1CCN(C(=O)c2c(-c3ccc(C(C)(C)C)cc3)n(C)n(-c3ccc(C(=N)N)cc3)c2=O)CC1` [compound 116], the IC50 under setting [2] came out at 90 µM.
As for `CCOC(=O)COCCN(C)C(=O)c1c(-c2ccccc2)n(C)n(-c2ccc(C(=N)N)cc2)c1=O` [compound 15], the IC50 was determined as 114 µM under setting [1] and 57 µM under setting [2].
The like results for `CCOC(=O)COC1CCN(C(=O)c2c(-c3ccc(-c4ccc(Cl)cc4)cc3)n(C)n(-c3ccc(C(=N)N)cc3)c2=O)CC1` [Compound No. 2] were, in that order, 8.1 µM and 3.9 µM.
Taken in the same sequence, the figures for `CCOC(=O)CN1CCC(NC(=O)c2c(-c3ccc(C(C)(C)C)cc3)n(C)n(-c3ccc(C(=N)N)cc3)c2=O)CC1` [compound 110] were 5 µM and 3.1 µM.
Taken in the same sequence, the figures for `CN(CC(=O)O)C1CCN(C(=O)c2c(-c3ccc(C(C)(C)C)cc3)n(C)n(-c3ccc(C(=N)N)cc3)c2=O)CC1` [compound 115] were 93 µM and 68 µM.
Turning to `CCOC(=O)COC1CCN(C(=O)c2cn(C)n(-c3ccc(C(=N)N)cc3)c2=O)CC1` [Compound No. 11], the IC50 came to 31 µM under setting [1] and 17 µM under setting [2].
The like results for `CCOC(=O)COCCNC(=O)c1c(-c2ccc(C(C)(C)C)cc2)n(C)n(-c2ccc(C(=N)N)cc2)c1=O` [compound 25] were, in that order, 43 µM and 20 µM.
The like results for `CCOC(=O)COC1CCN(C(=O)c2c(-c3ccc(-c4ccccc4)cc3)n(C)n(-c3ccc(C(=N)N)cc3)c2=O)CC1` [compound 23] were, in that order, 17 µM and 9.3 µM.
Taken in the same sequence, the figures for `Cn1c(-c2ccccc2)c(C(=O)N2CCC(OCC(=O)O)CC2)c(=O)n1-c1ccc(C(=N)N)cc1` [compound 17] were 20 µM and 23 µM.

These data come from US5968967A, “Pyrazolones derivatives” (Nissan Chemical Industries, Ltd., priority 1995, dated 1999).
